Key:
[1] = test system: C57BL6N mice with colitis induced by DSS; assay: Colitis induced by dextran sodium sulfate (DSS) in mice; format: in vivo
Procedure: In 7-week-old C57BL6N mice, it was confirmed whether punicalagin has an effect of alleviating symptoms of colitis induced by dextran sodium sulfate (DSS).
Specifically, while dextran sodium sulfate (DSS), which is a colitis-causing substance, was diluted in water at 2.5% and was fed to the mice for 9 days, 1 mg/kg (n=4), 3 mg/kg (n=4), or 10 mg/kg (n=5) punicalagin was dissolved in physiological saline and intraperitoneally injected once every 48 hours, and the mice were weighed once a day. As control groups, a group which was fed only with 2.5% DSS (n=4), a group which was not fed with DSS and was not injected with punicalagin (n=3), and a group which was not fed with DSS and was injected with punicalagin at 10 mg/kg (n=3) were established, and weight changes, tissue damage, proinflammatory cytokine concentrations, and the like were measured.

[2] = test system: SD rats with acute pancreatitis induced by caerulein; assay: Acute pancreatitis induced by caerulein in rats; format: in vivo
Procedure: In 6-week-old SD rats, it was confirmed whether punicalagin has an effect of alleviating symptoms of acute pancreatitis induced by caerulein.
Specifically, […], and after 30 minutes, 40 μg/kg of caerulein, which is an acute pancreatitis-inducing substance, was intraperitoneally injected, and then, after 2 hours, the pancreas of the experimental animals was extracted and analyzed.
First, the weight of the extracted pancreas was measured to determine whether punicalagin inhibits edema, which is a symptom of acute pancreatitis. As a result, it was confirmed that when 10 mg/kg punicalagin was administered to […], in which acute pancreatitis was induced by caerulein, the edema of the pancreas was inhibited by 95% or more (panel A of FIG. 8).
Next, as a result of observing the nucleus and cytoplasm of the extracted pancreatic tissue with a microscope through H&E staining in order to confirm the damage to pancreatic cells by caerulein, it was confirmed that in the rats administered with caerulein, the distance between pancreatic cells was increased and the cells were damaged due to symptoms of acute pancreatitis.

[3] = test system: ICR mice with atopic dermatitis induced by DNFB; assay: Atopic dermatitis and pruritus induced by DNFB in mice; format: in vivo; details: 3 mg/kg intraperitoneally daily
Procedure: In 12-week-old ICR mice, it was confirmed whether punicalagin inhibits pruritus caused by atopic dermatitis induced by 1-fluoro-2,4-dinitrobenzene (DNFB).
Specifically, as shown in panel A of FIG. 19, punicalagin (PG) was dissolved in physiological saline and intraperitoneally injected at 3 mg/kg daily for 17 days, and atopic dermatitis and pruritus were induced by treating 0.15% DNFB dissolved in acetone with a cotton swab on the back of the mice on the 10th, 13th, 20th, and 27th days.

[4] = target: T1, PAR2 (Homo sapiens, UniProt P55085); assay: Intracellular calcium increase by house dust mite extract and PAR2-AP in primary cultured conjunctival epithelial cells; format: cell-based; design: endogenous in cells; details: 10 μM, 10 μg/mL HDM extract, 100 μM PAR2-AP
T1 sequence (P55085 26-397): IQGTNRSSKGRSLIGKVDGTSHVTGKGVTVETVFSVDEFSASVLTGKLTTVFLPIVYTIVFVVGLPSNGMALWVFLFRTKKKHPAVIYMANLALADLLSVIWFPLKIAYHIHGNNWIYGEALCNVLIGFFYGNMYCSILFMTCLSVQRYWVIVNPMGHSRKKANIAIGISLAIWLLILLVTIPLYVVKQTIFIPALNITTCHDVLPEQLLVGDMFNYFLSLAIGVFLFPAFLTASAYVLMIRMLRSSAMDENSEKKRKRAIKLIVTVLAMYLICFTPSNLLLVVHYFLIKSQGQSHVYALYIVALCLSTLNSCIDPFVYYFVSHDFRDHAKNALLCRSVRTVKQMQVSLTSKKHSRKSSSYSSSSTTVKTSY
Procedure: In order to determine whether punicalagin has an effect of inhibiting cytokine secretion by house dust mites (HDM), after removing a culture medium of conjunctival epithelial cells that were primary cultured and differentiated in a transwell, 300 μL of the Flou4-NW dye mixture was added, and then, it was stabilized for 1 hour such that a Ca^2+ dye was loaded into the cells while blocking the light. Next, punicalagin was pretreated by concentration (0, 10, and 30 μM) for 10 minutes, and then, it was treated with a 10 μg/mL house dust mite extract (HDM extract). Afterwards, the concentration change of calcium ions (Ca^2+) was measured for 3 minutes at 1-second intervals, and 100 μM PAR2-AP was treated to measure whether punicalagin inhibited the concentration change of intracellular calcium ions by PAR2 receptor activation.

[5] = target: T1, PAR2; assay: Specificity: intracellular calcium increase by trypsin, PAR1-AP, thrombin and ATP in HT-29 cells; format: cell-based; design: endogenous in cells; host or cells: HT-29 colon cancer cells
Procedure: After colon cancer cells (HT-29) were cultured for 48 hours in a 96-well micro plate with the RPMI1640 culture medium, the culture medium was removed, and then, 100 μL of the Flou4-NW dye mixture was added. While blocking the light, it was stabilized for 1 hour such that a calcium ion dye (Ca^2+ dye) was loaded into the cells. Next, punicalagin was pretreated by concentration (0, 0.3, 1, 3, 10, 30, and 100 μM) for 10 minutes, and by treating 100 nM trypsin, it was measured for about 70 seconds at 1-second intervals to determine whether the concentration changes of intracellular calcium ions by PAR2 activation were an inhibitory effect by punicalagin (panel A of FIG. 2). In the same manner as the above, after punicalagin was pretreated by concentration (0, 1, 3, 10, 30, 100, and 300 μM), by treating 100 μM PAR1-AP (panel B of FIG. 2), 10 unit/mL thrombin (panel C of FIG. 2), and 100 μM ATP (panel D of FIG. 2), the concentration changes in intracellular calcium ions were measured for 70 seconds at 1-second intervals in each case.
In addition, it was compared how much it inhibited an increase in the concentration of intracellular calcium ions by trypsin, PAR1-AP, PAR2-AP, thrombin, and ATP depending on the concentration of punicalagin.

[6] = 1, 3 or 10 mg/kg intraperitoneally

## O=CC1OC(=O)c2cc(O)c(O)c(O)c2-c2c(cc(O)c(O)c2O)C(=O)OC1C1OC(=O)c2cc(O)c(O)c(O)c2-c2c(O)c(O)c3oc(=O)c4c(c(O)c(O)c5oc(=O)c2c3c54)-c2c(cc(O)c(O)c2O)C(=O)OCC1O (stereo not drawn) [punicalagin, 1,2,3,11,12,13-hexahydroxy-5,10-dioxo-8-[3,4,5,11,17,18,19,22,23,34,35-undecahydroxy-8,14,26,31-tetraoxo-9,13,25,32-tetraoxaheptacyclo[25.8.0.0^2,7.0^15,20.0^21,30.0^24,29.0^28,33]pentatnaconta-1(35),2,4,6,15,17,19,21,23,27,29,33-dodecaen-10-yl]-5,7,8,10-tetrahydrodibenzo[f,h][1,4]dioxecin-7-carbaldehyde]
[1]; [6]
  colon tissue damage caused by DSS: inhibited
  concentration of proinflammatory cytokines increased by DSS: significantly reduced
  length of the colon reduced by DSS: recovered
[1]; 1, 3 or 10 mg/kg intraperitoneally once every 48 hours, 2.5% DSS 9 days
  weight loss by DSS: inhibited weight loss by DSS in a concentration-dependent manner
[2]; 10 mg/kg, 30 minutes before 40 μg/kg caerulein, pancreas extracted after 2 hours
  inhibition of edema of the pancreas (pancreas weight): ≥ 95%
[2]; pretreated at 3 mg/kg, then caerulein
  edema of the pancreas and cell damage (H&E staining): strongly inhibited
[2]; rat, in vivo
  concentrations of inflammatory cytokines (INF-γ, IL-2, IL-4, IL-6, IL-β, TNF-α, IL-1β, etc.) increased by caerulein: significantly decreased
[3]
  suppression of the number of scratches caused by DNFB, measured for 30 minutes: about 60%
[3]; 0.15% DNFB
  atopic dermatitis (skin inflammation): significantly reduced
[4]
  concentration increases of intracellular calcium ions by house dust mites and PAR2-AP: all inhibited
[5]; 100 nM trypsin, 100 μM PAR1-AP, 10 unit/mL thrombin or 100 μM ATP, increasing punicalagin concentration
  inhibition of increase in concentration of intracellular calcium ions: effect of inhibiting an increase in the concentration of calcium ions was also improved
[5]; calcium increase
  selectivity for inhibition of PAR2 activity compared to ATP, thrombin, and PAR1-AP: ≥ 10 times

— US11957699B2, “Composition comprising punicalagin for inhibiting PAR2 activity” (INDUSTRY-ACADEMIC COOPERATION FOUNDATION, YONSEI UNIVERSITY, priority 2018, dated 2024)
